# What was measured:
# [1] = system: colon tumors and healthy tissues from the same patient; experiment: Binding of fluorophore-conjugated NT4 to human tumor surgical samples versus healthy tissue, confocal fluorescence; details: any tissue sample (colon and pancreas)
# Experimental: Each step was followed by washing with TBS. […] Each step was followed by washing with TBS. […] Analogue monomeric peptides were assayed for comparison. […] All images were processed using the ImageJ software (NIH).
# HT-29 = experiment: Cytotoxicity of drug-conjugated NT4, MTT growth inhibition; type: cell-based, human; details: HT29, best EC50 values, 0.15 to 30 μmol/L
# Experimental: (§1) Cells were grown without changing the medium for days. Growth inhibition was assessed by 3-(4,5-dimethylthiazol-2-yl)-2,5-diphenyltetrazolium bromide. EC50 values were calculated by non-linear regression analysis using GraphPaD prism 3.02 software.
# [2] = system: HT-29, PANC-1 and PC-3 tumor cell lines; experiment: Cytotoxicity of drug-conjugated NT4, statements on the three cell lines together; type: cell-based, human
# Experimental: Cells were grown without changing the medium for days.
# 5-FdU, Monastrol and CBTST were fast released from the adducts. […] The additional washing was performed in order to avoid free drug to diffuse inside the cells during the following six days.
# [3] = compared to NT
# PC-3 = experiment: Cytotoxicity of drug-conjugated NT4, MTT growth inhibition; type: cell-based, human
# Experimental: as §1
# [4] = Classification of functionalized branched peptides as fast or slow/non releasing; details: ability to release the functional unit from the carrier peptide
# HT29 tumors = experiment: Tumor growth reduction in mice; type: in vivo, CD-1 female nude mice; details: given six times, dose of 3 μg/kg, time-frame of 10 days
# Experimental: In details, CD-1 female nude mice (Charles River Laboratories, Inc.), 5 to 6 weeks of age (mean weight, 20 g), were injected s.c. in the right flank with 1×10^6 HT29 cells. When tumors reached a diameter of 3 to 4 mm (5 days after tumor inoculation) mice were randomly divided into groups (four mice per group) and repeatedly injected in the tail vein (0, 30, 70, 140, 190, 240 hours post first injection) with 500 μL of the following solutions in 0.9% NaCl: (a) 1 mg/mL NT(1-13)4-5FdU (3.05 μmol/kg); (b) 30 μg/mL 5FdU (3.05 μmol/kg); and (c) 0.9% NaCl.
# Tumor volumes were measured daily with a caliper using the following formula: volume=length*width2*π/6. 21 days after tumor inoculation, ie 6 days after the last treatment, mice were sacrificed, tumors, removed and weighted. […] Statistical analysis was done using Student's t test (p<0.05).
compound,measurement,setting,value
NT(1-13)4,binding to tissue sample compared to NT(8-13)4,[1],identical
NT4-peg-Biotin,IC50 values,NT receptor; compared to that of NT4,comparable
NT(8-13)-betaAla-K(PEG-5-fluorodeoxyuridine) [NT4(8-13)-5-FdU],EC50,HT-29,330 nM
NT(8-13)-betaAla-K(PEG-Monastrol) [NT4(8-13)-Mon],activity compared to the parent free drug,[2],no improvement
QHWSYGLRPG [LHRH],in vitro binding profiles,[3],lower
"O=C(O)CCCc1ccc(N(CCCl)CCCl)cc1 [CLB, chlorarnbucil]",sensitivity of PC-3 cells to the drug,PC-3,not affected
NT(8-13)4-betaAla-K(PEG-Chlorambucil) [NT4(8-13)-CLB],EC50,HT-29,1900 nM
same,releasing class of the adduct,[4],slow releasing
"CN(Cc1cnc2nc(N)nc(N)c2n1)c1ccc(C(=O)N[C@@H](CCC(=O)O)C(=O)O)cc1 [MTX, methotrexate]",sensitivity of PC-3 cells to the drug,PC-3,not affected
NT(8-13)-betaAla-K(PEG-6-mercaptopurine) [NT4(8-13)-6-MP],activity compared to the parent free drug,[2],no improvement
"O=c1[nH]c(=O)n([C@H]2C[C@H](O)[C@@H](CO)O2)cc1F [5-FdU, 5-fluoro-2′-deoxyuridine]",sensitivity of PC-3 cells to the drug,PC-3,not affected
same,inhibition of tumor growth,HT29 tumors,10%
NT(8-13)4-beta-Ala-Biotin,binding activity to NT receptor,NT receptor; compared to NT(8-13)4,loose binding activity
NT(8-13)-betaAla-K(PEG-Tirapazamine) [NT4(8-13)-TPZ],EC50,"PC-3; PC3, best EC50 values, 0.15 to 30 μmol/L, MTT",140 nM
same,releasing class of the adduct,[4],slow releasing

# Source: patent US20110319339A1, “NEUROTENSIN-DERIVED BRANCHED PEPTIDES AND USES THEREOF” (priority 2008, published 2011)
